Data: patent US12577273B2, “Small molecule modulators of gut bacterial bile acid metabolism” (priority 2019, dated 2026)
pIC50: −log10 of the molar value. Entries after “also recorded” stand apart in the source; their conditions may differ. Read-outs that look alike come from different tables or passages of the source.

Key:
[1] = tested on: differentiated Caco-2 cells
B. theta cultures = assay: BSH inhibition in growing B. theta cultures, single substrate (GUDCA or TUDCA); type: cell-based, Bacteroides thetaiotaomicron; conditions: 10 μM inhibitor, 100 μM GUDCA
B. theta BSH [2] = molecular target: T1, B. theta BSH (Bacteroides thetaiotaomicron, UniProt Q8A600); assay: Mass spectrometry analysis for identifying labeled residue on BSH; type: binding
Method: Mass Spectrometry Analysis for Identifying Labeled Residue on BSH. BSH protein was incubated with DMSO or a 10-fold molar excess of inhibitor 7 for 2 h at room temperature. Reactions were then analyzed by LC-MS using a Shimadzu LC and autosampler system (Shimadzu, Marlborough, MA) interfaced to an LTQ ion trap mass spectrometer (ThermoFisher Scientific, San Jose, CA).
To determine the site of modification, compound 7 modified protein was analyzed as described above, except that the LC system was interfaced to an Orbitrap Lumos Mass Spectrometer (ThermoFisher Scientific). […] Ion assignments were performed using mzStudio software.^50

B. adolescentis BSH = assay: Target validation and off-target profiling in B. adolescentis using 7-N3; type: cell-based, Bifidobacterium adolescentis L2-32; conditions: decreasing concentrations of 7 for 1 h, then 10 μM 7-N3
Method: Target Validation and Off-target Profiling in B. adolescentis using 7-N3. Pilot studies with 7-N3 were performed using B. adolescentis (Gram positive) and B. theta (Gram negative). We chose to use B. adolescentis due to the stronger total fluorescent signal detected by-in gel fluorescence. […] Cultures were allowed to grow anaerobically at 37° C. for 21 h. 10 μM 7-N3 (10 mM stock in DMSO) or […] DMSO (to control tubes) was then added to the cultures and incubated anaerobically at 37° C. for 1 h. The cultures were centrifuged at 2,500 g at 4° C. for 15 mins. The media was decanted and cells were resuspended in PBS containing 1 mM TCEP and 1 mM PMSF and centrifuged 4,200 rpm at 4° C. for 15 mins. The buffer was decanted and the cells were suspended in 300 μL of fresh buffer and transferred to homogenizing tubes (Precellys lysing kit tough micro-organism lysing VK05 tubes) with ceramic beads. The suspension was then homogenized (5000 speed for 90 s*2, 6500 speed for 60 s) and spun down for 20 min at 15,000 g at 4° C. The supernatant was removed and the concentration of proteins in the lysate was quantified by Bradford assay. The lysates were then subjected to click reaction as per “Click Chemistry for In-gel Fluorescence Imaging” for fluorescence imaging and “Click Chemistry for MS/MS on Bacterial Lysate” for mass spectrophotometer-based quantification and identification.
Cultures were allowed to grow anaerobically at 37° C. for 21 h. Decreasing concentrations of 7 were added to different tubes and the cultures were incubated anaerobically at 37° C. for 1 h. 10 μM 7-N3 was then added to the cultures and incubated anaerobically at 37° C. for an additional hour. The cultures were further processed as per the reported method in “Target Validation and Off-target Profiling in B. adolescentis using 7-N3” and “Click Chemistry for In-gel Fluorescence Imaging”.
Click Chemistry for In-gel Fluorescence Imaging. Click reactions were performed on 25 μL scale. Lysates (normalized to 1.5 mg/mL for both bacterial and mammalian cells) pretreated with 10 μM Compound 7-N3 were incubated with 100 μM fluor 488-alkyne (10 mM stock in DMSO), 100 μM CuBr (5 mM stock in DMSO), and 100 μM Tris[(1-benzyl-1H-1,2,3-triazol-4-yl)methyl]amine (5 mM stock in 4:1 t-BuOH:DMSO) for 1 h at 37° C. in the dark. 10 μL of 2×Laemmli buffer (containing 5% β-mercaptoethanol) was added to the reactions and the tubes were heated at 95° C. for 10 mins. 15 μL of the protein samples were then resolved by 10% SDS-PAGE. The ladder was diluted 100-fold and 10 μL was loaded. Gels were destained for 30 mins using 40% methanol, 50% acetic acid, 10% water and visualized using Bio-Rad ChemiDoc MP Imaging System. Gels were stained for 20 mins in Coomassie blue and destained for 2 h prior to imaging.
Click Chemistry for MS/MS on Bacterial Lysate. Click reactions were performed on 100 μL scale. Lysates (normalized to 1.3 mg/mL) pretreated with 10 μM 7-N3 were incubated with 100 μM desthiobiotin-PEG4-alkyne (10 mM stock in DMSO), 1 mM CuBr (50 mM stock in DMSO), and 1 mM Tris[(1-benzyl-1H-1,2,3-triazol-4-yl)methyl]amine (50 mM stock in 4:1 t-BuOH:DMSO) for 1 h at 37° C. The samples were then processed for further analysis as per “Proteomic Analysis of Click-Tagged Proteins”.
Proteomic Analysis of Click-Tagged Proteins.

B. theta BSH [3] = molecular target: T1, B. theta BSH; assay: Compound 7 kinetic studies (time to complete inhibition); type: biochemical
Method: Formation of deconjugated bile acid was measured using a UPLC-MS-based assay and reported as % conversion.
Compound 7 Kinetic Studies. […] B. theta BSH (200 nM) was added to a pool of 100 μM bile acid pool and 100 μM 7. 500 μL aliquots were removed at indicated time points and flash frozen in liquid nitrogen. […] Procedure was repeated with 8.2 mM TUDCA.

[4] = tested on: three Gram negative and three Gram positive strains of human gut bacteria; assay: Growth (OD600) and cell viability (CFU/mL) of the six gut bacterial strains; conditions: 100 μM inhibitor
B. theta = assay: Determination of IC50 of compound 7 in B. theta cultures

C[C@H](CCC(=O)CF)[C@H]1CC[C@H]2[C@@H]3[C@H](O)C[C@@H]4C[C@H](O)CC[C@]4(C)[C@H]3CC[C@]12C [Compound 7]
epithelial monolayer integrity (passive diffusion of 4 kDa FITC-dextran) [1]: did not compromise epithelial monolayer integrity
deconjugation of GUDCA in growing B. theta cultures (in words) (B. theta cultures): nearly complete inhibition of deconjugation
modified residue of B. theta BSH (top-down MS) (B. theta BSH [2]; 10-fold excess of compound 7): Cys2
shift in mass of BSH after treatment (B. theta BSH [2]; 10-fold excess of compound 7, 2 h): 388 Da
shift in the intact mass of the protein (B. theta BSH [2]; incubation of B. theta BSH with compound 7): 388 mass units
competition of 7 with 7-N3 for labeling of B. adolescentis BSH (B. adolescentis BSH): dose-dependent labeling
time to complete inhibition of B. theta BSH (B. theta BSH [3]; 100 μM 7 equimolar to substrate, no preincubation): ≤ 15 s
time to entire inhibition of B. theta BSH activity (B. theta BSH [3]; large excess (~80-fold) of substrate (8.2 mM TUDCA)): ≤ 15 min
effect on bacterial cell viability (CFU/mL, plated at 21 h) [4]: not bactericidal; also recorded: did not significantly affect the cell viability of the majority of the tested strains
effect on bacterial growth (OD600 at 24 hours) [4]: did not significantly impact the growth
effect on bacterial growth (OD600 at 24 hours) ([4]; listed as compound 7): not bactericidal
pIC50 (B. theta; Bacteroides thetaiotaomicron, 48 h, read-out: IC50 against B. theta (growing culture), 100 μM TUDCA, 48 h anaerobic growth): 6.04
pIC50 (B. theta; read-out: IC50 against B. theta (growing culture), 100 μM TUDCA, 48 h anaerobic growth): 5.97
